Source: paper PMC2430196, “Antagonist affinity measurements at the Gi-coupled human histamine H3 receptor expressed in CHO cells” (BMC Pharmacology, 2008)
Like-named read-outs stand apart in the source and are kept apart here.

What was measured:
[1] = biological target: T1, human histamine H3 receptor (Homo sapiens, UniProt Q9Y5N1); test: CRE-SPAP gene transcription in forskolin-stimulated CHO-H3-SPAP cells; conditions: for Kd / Schild slope / pKD values: CRE-SPAP; for Schild slope: 3 antagonist concentrations; for agonist character in CRE-SPAP screen: inhibition of forskolin-stimulated CRE-SPAP production; for pIC50, CRE-SPAP: agonism, inhibition of 4 μM forskolin-stimulated CRE-SPAP production
T1 sequence (Q9Y5N1 whole entry): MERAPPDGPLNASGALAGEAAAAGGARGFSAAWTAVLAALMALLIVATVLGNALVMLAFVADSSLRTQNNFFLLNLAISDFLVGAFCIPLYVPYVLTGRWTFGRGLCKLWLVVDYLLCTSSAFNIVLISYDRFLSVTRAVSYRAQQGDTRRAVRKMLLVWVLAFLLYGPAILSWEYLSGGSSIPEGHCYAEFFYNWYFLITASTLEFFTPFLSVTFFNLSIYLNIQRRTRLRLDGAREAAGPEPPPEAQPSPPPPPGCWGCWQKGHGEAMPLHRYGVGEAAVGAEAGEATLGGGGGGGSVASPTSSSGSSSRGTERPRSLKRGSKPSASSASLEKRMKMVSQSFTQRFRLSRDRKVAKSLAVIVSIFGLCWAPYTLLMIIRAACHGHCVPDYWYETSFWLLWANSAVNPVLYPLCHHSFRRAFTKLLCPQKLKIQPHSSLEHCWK
Procedure: (§1) The transfected cells were selected for neomycin resistance (1 mg/ml; for H3 receptor) and hygromycin resistance (200 μg/ml; for CRE-SPAP reporter gene) for 3 weeks and passaged twice during in this period. A single clone was then isolated by dilution cloning to give a clonal line (CHO-H3-SPAP cells). The parent cell CRE-SPAP was also used for control experiments (CHO-SPAP cells).
(§2) Cells were grown to confluence in 96-well tissue culture plates. The cells were then serum starved by removing the media and replacing it with 100 μl serum free media (DMEM/F12 containing 2 mM L-glutamine). […] Where used, pertussis toxin, at a final concentration of 100 ng/ml was added to the serum-free media and thus incubated with the cells for 24 hours. On the day of experimentation, the serum-free media was removed and replaced with 100 μl serum-free media or 100 μl serum-free media containing an antagonist at the final required concentration and the cells incubated for 1 hour. Agonist in 10 μl (diluted in serum free media) was then added to each well and the cells incubated for 10 minutes. Forskolin was then added to all but the basal wells to give a final well concentration of 4 μM and the plates incubated for 5 hours. After 5 hours, the media and all drugs were removed. […] The plates were then incubated at 65°C for 30 minutes to destroy any endogenous phosphatases. After cooling to 37°C, 100 μl 5 mM pNPP in diethanolamine buffer was added to each well and the plates incubated at 37°C in a normal atmosphere until the yellow colour developed.
(§3) Sigmoidal concentration-response curves were fitted to the data using Graphpad Prism 2 and the following equation:
(§4) Antagonist KD values were then calculated from the shift of the agonist concentration responses in the presence of a fixed concentration of antagonist using the following equation:
(§5) where DR (dose ratio) is the ratio of the agonist concentration required to stimulate an identical response in the presence and absence of a fixed concentration of antagonist [B].
(§6) In experiments where three different fixed concentrations of the same antagonist were used, Schild plots were constructed using the following equation:
Log (DR-1) = log [B] - log (KD)
(§7) These points were then fitted to a straight line.
(§8) Partial agonist dissociation constants were therefore estimated according to the method of Stephenson [35] using the following equation:
(§9) KD partial agonist=X.[P]/1−Xwhere X=[A2]−[A1]/[A3]

[2] = biological target: T1, human histamine H3 receptor; test: 3H-cAMP accumulation in forskolin-stimulated CHO-H3-SPAP cells; format: cell-based; parameters: secondarily transfected with the full length human histamine H3 receptor; host or cells: CHO-K1 cells with CRE-SPAP reporter (clonal line CHO-H3-SPAP); conditions: for intrinsic activity response in 3H-cAMP accumulation: n = 4
Procedure: Cells were grown to confluence in 24-well plates. The media was removed and the cells pre-labelled with ^3H-adenine by incubation with 2 μCi/ml ^3H-adenine in serum-free media (0.5 ml per well) for 3 hours. The ^3H-adenine was then removed and the cells washed by the addition then removal of 1 ml serum-free media. […] Forskolin (final concentration of 10 μM) was then added to all but the basal wells and the plates incubated for 30 minutes. The reaction was terminated by the addition of 50 μl concentrated HCl per well and the plates were then frozen. Later, the plates were thawed and ^3H-cAMP separated from other ^3H-nucleotides by sequential Dowex and alumina column chromatography, as previously described.
When the intrinsic efficacy of the antagonist ligands was examined, the antagonists were incubated for 5 hours at 37°C in order to maximise the chance of detecting any changes in ^3H-cAMP accumulation.
Response=Emax×[A]/IC50+[A]

[3] = biological target: T1, human histamine H3 receptor; test: cell-based
Procedure: as §1, §2, §3, §4, §5, §6
Log (DR-1) = log [B] - log (KD)
as §7, §8, §9

CHO-SPAP cells = test: CRE-SPAP gene transcription in parent CHO-SPAP cells (without the H3 receptor); format: cell-based, Chinese hamster; conditions: for IC50: Cricetulus griseus, CHO-SPAP cells (without the receptor), read-out: pIC50, CRE-SPAP, low potency component (converted)
Procedure: The response to all ligand used in this study was examined in the parent CHO-SPAP cells (expressing the reporter but not the human H3 receptor). Full 7-point concentration response curves were constructed, in the presence and absence of 4 μM forskolin. […].

CHO-H3-SPAP cells = test: Trypan blue uptake in CHO-H3-SPAP cells; conditions: 5 hours incubation
[4] = biological target: T1, human histamine H3 receptor
Procedure: as §1, §2, §3, §4, §5, §6
Log (DR-1) = log [B] - log (KD)
as §7, §8, §9

[5] = Log KD values, agonist N-α-methylhistamine
[6] = Log KD values, agonist R-α-methylhistamine
[7] = Log KD values, agonist S-α-methylhistamine
[8] = Log KD values, agonist VUF 8430
[9] = Log KD values, agonist histamine
[10] = Log KD values, agonist immethridine
[11] = Log KD values, agonist impentamine (first component of the response)
[12] = Log KD values, agonist proxyfan
[13] = agonism, inhibition of 10 μM forskolin-stimulated 3H-cAMP accumulation, CHO-H3-SPAP cells, read-out: pIC50, 3H-cAMP accumulation (converted)
[14] = agonism, inhibition of 10 μM forskolin-stimulated 3H-cAMP accumulation, CHO-H3-SPAP cells

## CC(C1=C(CCN(C)C)Cc2ccccc21)c1ccccn1 (centres unmarked) [dimethindine, dimethindene]
[1]; [5]
  Kd: 2140 nM
[1]; [6]
  Kd: 2240 nM
[1]; [7]
  Kd: 2140 nM
[1]; [8]
  Kd: 7760 nM
[1]; [9]
  Kd: 2340 nM
[1]; Log KD values, agonist imetit
  Kd: 2510 nM
[1]; [10]
  Kd: 4170 nM
[1]; [11]
  Kd: 2570 nM
[1]; [12]
  Kd: 5750 nM
[2]; 5 hours incubation with ligand
  intrinsic activity response in 3H-cAMP accumulation: No responses
[3]
  Kd: 1910 nM

## Cn1cncc1CCN [3-methylhistamine]
[1]
  IC50: 13500 nM

## NC(=NCc1ccc(Cl)cc1)SCCCc1cnc[nH]1 [clobenpropit]
[1]; agonist N-α-methylhistamine
  Schild slope: 1.08 ± 0.07
[1]; agonist R-α-methylhistamine
  Schild slope: 1.10 ± 0.06
[1]; agonist S-α-methylhistamine
  Schild slope: 1.09 ± 0.04
[1]; agonist histamine
  Schild slope: 0.98 ± 0.03
[1]; agonist imetit
  Schild slope: 1.02 ± 0.04
[1]; agonist immepip
  Schild slope: 1.05 ± 0.02
[1]; agonist immethridine
  Schild slope: 1.02 ± 0.04
[2]; 5 hours incubation with ligand
  intrinsic activity response in 3H-cAMP accumulation: No responses

## CN(C)CCC(c1ccc(Cl)cc1)c1ccccn1 (centres unmarked) [chlorpheniramine]
[1]; [5]
  Kd: 3090 nM
[1]; [6]
  Kd: 3630 nM
[1]; [7]
  Kd: 3630 nM
[1]; [8]
  Kd: 7410 nM
[1]; [9]
  Kd: 4790 nM
[1]; Log KD values, agonist imetit
  Kd: 2630 nM
[1]; [10]
  Kd: 2950 nM
[1]; [11]
  Kd: 6170 nM
[1]; [12]
  Kd: 4070 nM
[2]; 5 hours incubation with ligand
  intrinsic activity response in 3H-cAMP accumulation: No responses
[3]
  Kd: 2570 nM

## Br.Br.c1nc(CCCC2CCNCC2)c[nH]1 [VUF 5681, 4-[3-(1H-imidazol-4-yl)propyl]piperidine dihydrobromide]
CHO-SPAP cells; presence and absence of 4 μM forskolin, up to 100 μM (10 μM for zolatidine, conessine, iodophenpropit, clobenpropit, clemastine)
  CRE-SPAP response in parent CHO-SPAP cells: A small decrease from maximum was seen only at the highest concentration (100 μM)
[1]
  IC50: 25.1 nM
[1]; [5]
  Kd: 11.2 nM
[1]; [6]
  Kd: 25.1 nM
[1]; [7]
  Kd: 17.8 nM
[1]; [8]
  Kd: 19.5 nM
[1]; [9]
  Kd: 17 nM
[1]; Log KD values, agonist imetit
  Kd: 14.1 nM
[1]; [10]
  Kd: 16.2 nM
[1]; [12]
  Kd: 15.8 nM
[1]; CHO-H3-SPAP cells
  agonist character in CRE-SPAP screen: agonist properties
[2]; [13]
  IC50: 3.89 nM
[2]; pIC50, 3H-cAMP accumulation, 5 hours incubation, partial agonist response, 5 hours incubation with ligand
  IC50: 3.8 nM
[3]
  Kd: 19.1 nM

## C[C@H]1[C@H]2CC[C@H]3[C@@H]4CC=C5C[C@@H](N(C)C)CC[C@]5(C)[C@H]4CC[C@]23CN1C [conessine]
[1]; agonist N-α-methylhistamine
  Schild slope: 0.98 ± 0.05
[1]; agonist R-α-methylhistamine
  Schild slope: 1.00 ± 0.06
[1]; agonist S-α-methylhistamine
  Schild slope: 1.08 ± 0.04
[1]; agonist histamine
  Schild slope: 1.07 ± 0.03
[1]; agonist imetit
  Schild slope: 1.18 ± 0.09
[1]; agonist immepip
  Schild slope: 1.09 ± 0.05
[1]; agonist immethridine
  Schild slope: 1.14 ± 0.08
[1]; pKD values, agonist N-α-methylhistamine
  Kd: 5.37 nM
[1]; pKD values, agonist R-α-methylhistamine
  Kd: 5.75 nM
[1]; pKD values, agonist S-α-methylhistamine
  Kd: 5.25 nM
[1]; pKD values, agonist VUF 8430
  Kd: 7.08 nM
[1]; pKD values, agonist histamine
  Kd: 5.13 nM
[1]; pKD values, agonist imetit
  Kd: 5.75 nM
[1]; pKD values, agonist immethridine
  Kd: 3.8 nM
[1]; pKD values, agonist impentamine (first component of the response)
  Kd: 4.17 nM
[1]; pKD values, agonist proxyfan
  Kd: 2.75 nM
[2]; 5 hours incubation with ligand
  inverse agonist response, 3H-cAMP accumulation: 120 ± 1.5 % basal
[2]; 5 hours incubation with ligand, read-out: pEC50, inverse agonist response, 3H-cAMP accumulation (converted)
  EC50: 3.09 nM
[3]
  Kd: 8.13 nM

## Cc1nc(N)sc1CCN [amthamine]
[1]
  IC50: 13500 nM

## CNC(=S)NCCCCc1cnc[nH]1 [burimamide]
[1]
  IC50: 427 nM
[1]; CHO-H3-SPAP cells
  agonist character in CRE-SPAP screen: partial agonist actions
[2]; [13]
  IC50: 224 nM

## N=C(N)SCCc1cnc[nH]1 [imetit]
[1]
  IC50: 0.437 nM
[2]
  IC50: 0.123 nM

## c1ccc(COCCCc2c[nH]cn2)cc1 [proxyfan]
[1]
  IC50: 16.2 nM
[2]; [13]
  IC50: 4.9 nM

## Cn1cnc(CCN)c1 [1-methylhistamine]
[1]
  IC50: 20000 nM

## NCCCCCc1cnc[nH]1 [impentamine]
CHO-SPAP cells; with forskolin
  IC50: 4680 nM
CHO-SPAP cells; without forskolin
  IC50: 3890 nM
[1]; CHO-H3-SPAP cells
  agonist character in CRE-SPAP screen: partial agonist actions
[1]; pIC50, CRE-SPAP, low potency component, CHO-H3-SPAP cells, absence of forskolin, with PTX pre-incubation
  IC50: 5130 nM
[1]; pIC50, CRE-SPAP, low potency component, CHO-H3-SPAP cells, absence of forskolin, without PTX pre-incubation
  IC50: 6610 nM
[1]; pIC50, CRE-SPAP, second component remaining after PTX, forskolin-stimulated CHO-H3-SPAP cells, 24 hours pre-incubation with PTX
  IC50: 6030 nM
[1]; pIC50 Site 1, CRE-SPAP, first component of two-component response, forskolin-stimulated CHO-H3-SPAP cells
  IC50: 25.7 nM
[1]; second component of two-component response, forskolin-stimulated CHO-H3-SPAP cells
  pIC50 Site 2, CRE-SPAP: Site 2 5.40 ± 0.05
CHO-H3-SPAP cells
  intracellular uptake of trypan blue: did not show any intracellular uptake of trypan blue
[2]; read-out: pIC50, 3H-cAMP accumulation (converted)
  IC50: 3.72 nM

## c1nc(CC2CCNCC2)c[nH]1 [immepip]
[1]
  IC50: 0.224 nM
[2]
  IC50: 0.0501 nM

## NCCc1ccccn1 [2-pyridylethylamine]
[1]
  IC50: > 100000 nM

## Br.Br.N=C(N)NCCSC(=N)N [VUF 8430, 2-[(aminoiminmethyl)amino]ethyl carbamimidothioic acid ester dihydrobromide]
[1]; CHO-H3-SPAP cells
  pIC50, CRE-SPAP: 5.66 ± 0.08
[2]; [14]
  pIC50, 3H-cAMP accumulation: 6.38 ± 0.07

## c1cc(Cc2cnc[nH]2)ccn1 [immethridine]
[1]
  IC50: 0.389 nM
[2]
  IC50: 0.174 nM

## CN(C)CCCSC(=N)N [dimaprit]
[1]
  IC50: 2570 nM

## c1cc(CN2CCCCC2)cc(OCCCNc2nc3ccccc3s2)c1 [zolatidine]
[1]; agonist N-α-methylhistamine
  pKD values: 6.46 ± 0.07
  Schild slope: 1.10 ± 0.12
[1]; agonist R-α-methylhistamine
  pKD values: 6.52 ± 0.06
  Schild slope: 1.04 ± 0.04
[1]; agonist S-α-methylhistamine
  pKD values: 6.54 ± 0.07
  Schild slope: 1.10 ± 0.07
[1]; agonist VUF 8430
  pKD values: 6.38 ± 0.10
[1]; agonist histamine
  pKD values: 6.51 ± 0.07
  Schild slope: 1.01 ± 0.04
[1]; agonist imetit
  pKD values: 6.62 ± 0.08
  Schild slope: 1.17 ± 0.05
[1]; agonist immepip
  Schild slope: 1.18 ± 0.08
[1]; agonist immethridine
  pKD values: 6.66 ± 0.05
  Schild slope: 0.96 ± 0.02
[1]; agonist impentamine (first component of the response)
  pKD values: 6.52 ± 0.10
[1]; agonist proxyfan
  pKD values: 6.78 ± 0.06
  Schild slope: 0.91 ± 0.11
[2]; 5 hours incubation with ligand
  intrinsic activity response in 3H-cAMP accumulation: No responses
[4]
  Kd: 282 nM

## CC(CCCCC(=O)Nc1ccc(C(F)(F)F)cc1)NCCc1cnc[nH]1 (centres unmarked) [HTMT, histamine trifluoromethyl toluidide]
[1]; CHO-H3-SPAP cells
  pIC50, CRE-SPAP: 5.21 ± 0.18

## CNCCc1cnc[nH]1 [N-α-methylhistamine]
[1]; CHO-H3-SPAP cells
  pIC50, CRE-SPAP: 8.89 ± 0.04
[2]; [14]
  pIC50, 3H-cAMP accumulation: 9.45 ± 0.05

## Cc1ccc(/C(=C\CN2CCCC2)c2ccccn2)cc1 [triprolidine]
[1]; [5]
  Kd: 4570 nM
[1]; [6]
  Kd: 2630 nM
[1]; [7]
  Kd: 3390 nM
[1]; [8]
  Kd: 5500 nM
[1]; [9]
  Kd: 4470 nM
[1]; Log KD values, agonist imetit
  Kd: 3720 nM
[1]; [10]
  Kd: 2950 nM
[1]; [11]
  Kd: 2240 nM
[1]; [12]
  Kd: 5890 nM
[2]; 5 hours incubation with ligand
  intrinsic activity response in 3H-cAMP accumulation: No responses
[3]
  Kd: 2450 nM

## Cc1nc[nH]c1CCN [4-methylhistamine]
[1]
  IC50: 11500 nM

## S=C(NC1CCCCC1)N1CCC(c2cnc[nH]2)CC1 [thioperamide]
[1]; agonist N-α-methylhistamine
  Schild slope: 0.98 ± 0.07
[1]; agonist R-α-methylhistamine
  Schild slope: 1.00 ± 0.05
[1]; agonist S-α-methylhistamine
  Schild slope: 1.01 ± 0.08
[1]; agonist histamine
  Schild slope: 1.01 ± 0.03
[1]; agonist imetit
  Schild slope: 1.02 ± 0.07
[1]; agonist immepip
  Schild slope: 1.06 ± 0.02
[1]; agonist immethridine
  Schild slope: 1.08 ± 0.04
[1]; agonist proxyfan
  Schild slope: 1.02 ± 0.03
[2]; 5 hours incubation with ligand
  inverse agonist response, 3H-cAMP accumulation: 106.3 ± 2.6 % basal
